Experimental data taken from publication PMC6093650, “Antidepressive and anxiolytic effects of ostruthin, a TREK-1 channel activator” (PLoS ONE, 2018).

Experiments:
TREK-1 channel = molecular target: T1, TREK-1 channel (Homo sapiens, UniProt O95069); experiment: whole-cell patch-clamp of TREK-1 currents in TR-1 cells (293T stably expressing TREK-1); format: cell-based; conditions: TR-1 (293T) cells, 25°C, applied 5 min after whole-cell access, n = 5; read-out: EC50 of activation of whole-cell TREK-1 currents
T1 construct: expressed in transfected cells
T1 sequence (O95069 1-426): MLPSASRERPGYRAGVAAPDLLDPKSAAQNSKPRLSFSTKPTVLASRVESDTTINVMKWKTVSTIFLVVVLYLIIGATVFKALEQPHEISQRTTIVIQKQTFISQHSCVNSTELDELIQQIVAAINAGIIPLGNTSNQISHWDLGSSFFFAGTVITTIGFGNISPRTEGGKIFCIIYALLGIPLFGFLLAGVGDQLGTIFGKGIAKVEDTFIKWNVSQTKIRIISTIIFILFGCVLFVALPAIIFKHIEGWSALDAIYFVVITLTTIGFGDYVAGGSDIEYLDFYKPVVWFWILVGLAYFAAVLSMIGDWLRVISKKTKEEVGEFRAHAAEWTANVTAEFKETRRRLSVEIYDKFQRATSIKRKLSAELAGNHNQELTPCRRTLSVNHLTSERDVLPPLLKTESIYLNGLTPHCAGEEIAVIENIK
Description: (§1) For recordings of K^+ channel currents, we prepared stable cell lines for TREK-1, TWIK-related acid-sensitive K^+ channel (TASK-1), strongly inwardly rectifying K^+ channel (Kir2.1), and human ether-a-go-go-related gene (HERG-1) channels and transiently expressed other channels in 293T cells using a calcium-phosphate transfection method. For the establishment of the stable lines, we used lentiviral vectors, and the preparation methods for the lentiviral vectors were described in our previous report. TR-1 cells, which stably expressed TREK-1 channel and were grown on a small cover glass (3 × 18 mm), were placed in a recording chamber with an internal volume of 200 μl. Whole-cell currents were recorded in Tyrode solution using an Axopatch 200B amplifier (Axon Instruments, Foster City, CA) at 25°C. […] Perfusion (100 μl/min) was continued to maintain the water level throughout recordings. pH and osmotic pressure of solutions were measured with a pH meter (Horiba, Kyoto, Japan) and a freezing point osmometer (Knauer, Berlin, Germany), respectively.
We previously prepared a lentiviral vector that expressed the TREK-1 channel and using this vector we established a cell line, TR-1, which stably expressed the channel. […] Immediately after whole-cell access, small outward currents were recorded in response to depolarizing step pulses (Fig 1A, 0 min). […]

KCNQ-3 = KCNQ-3 (Homo sapiens, UniProt O43525); experiment: whole-cell patch-clamp of KCNQ-3 currents in 293T cells; format: cell-based; conditions: 100 μM (data not shown)
Description: as §1, with “25°C. Tyrode solution contained (in mM): NaCl 140, KCl 5.4, NaH2PO4 0.33, CaCl2 2, MgCl2 1, HEPES 5, and glucose 5.5 (pH 7.4 adjusted with NaOH).” for “25°C.”, “respectively. […]” for “respectively.”

[1] = test system: depression-like behavior of mice; experiment: social defeat stress test; format: in vivo; conditions: C57BL/6J mice after 9 days of defeat, p = 0.440, n = 14
Description: Male ICR mice (n = 317 in total) aged 5 weeks and weighing 32 ± 2 g were purchased from Shimizu Laboratory Supplies (Kyoto, Japan). For the social defeat stress test, we used 28 C57BL/6J mice (5 weeks old, Shimizu Laboratory Supplies) and 30 ICR mice (7–8 weeks old, Charles River Labs Japan, Yokohama, Kanagawa, Japan). Mice were maintained for at least 1 week prior to experiments. Animals were kept in groups in plastic cages. They had free access to food and water, and were kept in a 12-h light/dark cycle (08:00–20:00). Experiments were carried out between 10:00 and 18:00 in a quiet and air-conditioned experimental room, in which mice were habituated for at least 30 min before each experiment. Animal experiments were performed in accordance with the guidelines of the Physiological Society of Japan and were approved by the Committees on Animal Experiments at Kansai Medical University and the Kurashiki University of Science and the Arts. Ostruthin was initially dissolved in DMSO at higher concentration (100 mM) and then diluted in phosphate-buffered saline (PBS). The diluted solution was mixed vigorously for more than 10 min before the experiments, and an equal volume of DMSO was added to PBS as a control. […] Time spent in the target zone was measured firstly with the empty mesh enclosure for 150 sec. […]

Structure (SMILES): CC(C)=CCC/C(C)=C/Cc1cc2ccc(=O)oc2cc1O [ostruthin]
- EC50 (TREK-1 channel): 5.3 µM
- effect on KCNQ-3 channels (KCNQ-3): no effect
- time difference in the interaction area (target zone) [1]: increased the time difference in the interaction area non-significantly
